Results published in patent US20240092784A1, “CONDENSED HETEROCYCLIC COMPOUND” (NISSAN CHEMICAL CORPORATION, priority 2020, published 2024).
Structures can show the parent of a compound that is named as a salt. Where two headings read alike, the source gives them in different places.

Molecular target: human SPR (Homo sapiens (Human), UniProt P35270)
Experiment: Evaluation Example 2: Measurement of human SPR inhibitory activity (seven concentrations, sepiapterin absorbance at 420 nm)
Format: biochemical
Procedure: Human SPR was prepared as described below. The full-length human SPR (1-261) cDNA was purchased from Eurofins Genomics as an artificially synthesized plasmid containing a DNA sequence optimized for the E. coli expression system so that the sequence of the expressed protein after transcription and translation matches the sequence described in UniprotKB (P35270).
Linearized insert and vector were prepared by PCR using primers designed for amplification of human SPR cDNA and primers designed to contain the thrombin recognition sequence of pET28a (Novagen) and a polyhistidine tag. Cloning was performed using In-Fusion (registered trademark) HD Cloning Kit (TaKaRa) to thereby construct a human SPR expression plasmid. The resultant human SPR expression plasmid was transformed into BL21 (DE3) competent cells (INVITROGEN).
The cells were inoculated into LB medium (1% triptone, 0.5% yeast extract, 1% sodium chloride) containing […] of kanamycin, and then precultured at 37° C. overnight. The precultured cells were inoculated into TB medium (1.2% triptone, 2.4% yeast extract, 9.4% dipotassium hydrogen phosphate, 2.2% potassium dihydrogen phosphate, 0.8% glycerin) containing […] of kanamycin, and the cultured at 37° C., to thereby induce SPR expression with 0.5 mM IPTG for four hours. After the induction, the cells were collected by centrifugation at 6,000 G for 30 minutes and washed with PBS, and the washing was discarded. The washed cells were suspended in buffer solution A (20 mM MES, pH 6.5, 100 mM sodium chloride, 1 mM DTT, 5 mM imidazole). Subsequently, the cell suspension was subjected to ultrasonic treatment to thereby homogenize the cells. The cell homogenate was clarified by centrifugation at 30,000 G for 60 minutes and then filtered with a […]. The filtrate was allowed to pass through HisTrapFF 5 mL column (GE Healthcare). The resin was washed with buffer A, and then gradient elution was performed with buffer B (20 mM MES, pH 6.5, 100 mM sodium chloride, 1 mM DTT, 500 mM imidazole). Thrombin was added to a fraction containing the SPR protein, and the mixture was dialyzed in buffer A overnight, to thereby cleave the tag. After removal of the thrombin by with Benzamidine Sepharose 4 FF (GE Healthcare), the resultant product was allowed to pass through the HisTrapFF 5 mL column, to thereby remove the tag, followed by concentration with Amicon Ultra 10,000 NMWL (Merck Millipore). The concentrate was purified by gel filtration using HiLoad 16/60 Superdex 75 pg (GE Healthcare) equilibrated with buffer C (20 mM MES, pH 6.5, 100 mM sodium chloride, 1 mM DTT). The fraction containing SPR protein was concentrated and then cryopreserved at −80° C.
Human SPR inhibitory activity was measured by using a 384-well low adsorption clear plate (Greiner) with buffer D containing 100 mM Tris-HCl (pH 7.5) (Thermo Fisher Scientific) and 0.01% bovine serum albumin (Sigma). A compound was diluted with DMSO to achieve seven different final concentrations; i.e., 0.14 nM, 0.41 nM, 1.23 nM, 3.7 nM, 11.1 nM, 33 nM, and 100 nM. A 1.5 μL aliquot of the compound solution prepared with DMSO was diluted with 250 μL of buffer D, and the thus-diluted solution was dispensed into the 384-well plate at 20 μL/well. Thereafter, human SPR was diluted with buffer D to 150 ng/mL and then dispensed into the 384-well plate at 20 μL/well. Subsequently, 40 μL of ultrapure water containing 120 μM sepiapterin (produced by the method described in L-Sepiapterin, Heterocycles, 2008, 76, 1329-1335 and WO 2013/168693) and 160 μM NADPH (Nacalai) was added to each well, and then reaction was initiated. The reaction mixture was incubated at room temperature for 240 minutes. Thereafter, in order to determine the amount of sepiapterin, the absorbance at 420 nm was measured by applying the 384-well plate to EnSpire multimode plate reader (Perkin Elmer). The percent inhibition (%) of human SPR by the test compound was calculated by the following formula.

[1] = Evaluation Example 2, seven concentrations 0.14 nM to 100 nM, 240 minutes at room temperature, read-out: IC50
[2] = sepiapterin absorbance, Table 41, read-out: concentration at 50% inhibition of human SPR (IC50)

human SPR, sequence (P35270 whole entry): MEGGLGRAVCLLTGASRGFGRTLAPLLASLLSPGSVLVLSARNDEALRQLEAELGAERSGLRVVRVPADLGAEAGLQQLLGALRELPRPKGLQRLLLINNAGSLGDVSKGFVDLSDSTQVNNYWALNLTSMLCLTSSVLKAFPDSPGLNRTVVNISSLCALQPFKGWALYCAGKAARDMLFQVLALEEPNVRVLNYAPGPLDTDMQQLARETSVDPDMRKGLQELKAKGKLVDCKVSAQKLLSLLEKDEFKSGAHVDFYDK

Row | SMILES | IC50 [1] [nM] | IC50 [2] [nM]
1 | CCC(N)c1cc2n(CC(C)(C)C)c(=O)c(C(=O)NC3CC3)c(O)n2n1 (racemic) [Synthesis Example 280, 2-(1-Aminopropyl)-N-cyclopropyl-7-hydroxy-4-neopentyl-5-oxo-4,5-dihydropyrazolo[1,5-a]pyrimidine-6-carboxamide hydrochloride (racemate)] | 5.64 | –
2 | Cc1nn2c(O)c(C(=O)NC3CC3)c(=O)n(CC(C)C)c2c1/C=C/C(=O)N1C[C@@H](F)[C@H](F)C1 (racemic) [Synthesis Example 649, N-Cyclopropyl-3-((E)-3-(trans-3,4-difluoropyrrolidin-1-yl)-3-oxoprop-1-en-1-yl)-7-hydroxy-4-isobutyl-2-methyl-5-oxo-4,5-dihydropyrazolo[1,5-a]pyrimidine-6-carboxamide] | 0.73 | –
3 | CC(C)Cn1c(=O)c(C(=O)NC2CC2)c(O)n2ncc(/C=C/C(=O)N3C[C@@H](F)[C@H](F)C3)c12 (racemic) [Synthesis Example 723, N-Cyclopropyl-3-((E)-3-(trans-3,4-difluoropyrrolidin-1-yl)-3-oxoprop-1-en-1-yl)-7-hydroxy-4-isobutyl-5-oxo-4,5-dihydropyrazolo[1,5-a]pyrimidine-6-carboxamide (racemate)] | – | 0.69
4 | CC(C)Cn1c(=O)c(C(=O)NC2CC2)c(O)n2ncc(/C=C/C(=O)N3CCC(C)(O)C3)c12 (racemic) [compound 500, (E)-N-Cyclopropyl-7-hydroxy-3-(3-(3-hydroxy-3-methylpyrrolidin-1-yl)-3-oxoprop-1-en-1-yl)-4-isobutyl-5-oxo-4,5-dihydropyrazolo[1,5-a]pyrimidine-6-carboxamide (racemate)] | 0.88 | –
5 | CC(C)Cn1c(=O)c(C(=O)NC2CC2)c(O)n2ncc(/C=C/C(=O)N3CCC(F)(F)CC3C)c12 (racemic) [compound 546, (E)-N-Cyclopropyl-3-(3-(4,4-difluoro-2-methylpiperidin-1-yl)-3-oxoprop-1-en-1-yl)-7-hydroxy-4-isobutyl-5-oxo-4,5-dihydropyrazolo[1,5-a]pyrimidine-6-carboxamide (racemate)] | 0.77 | –
6 | CC(C)Cn1c(=O)c(C(=O)NC2CC2)c(O)n2ncc(/C=C/C(=O)N3CCC4CC43)c12 (racemic) [compound 588, (E)-3-(3-(2-Azabicyclo[3.1.0]hexan-2-yl)-3-oxoprop-1-en-1-yl)-N-cyclopropyl-7-hydroxy-4-isobutyl-5-oxo-4,5-dihydropyrazolo[1,5-a]pyrimidine-6-carboxamide (racemate)] | 1.59 | –
7 | CC(C)Cn1c(=O)c(C(=O)NC2CC2)c(O)n2ncc(/C=C/C(=O)N3CCCC3C3CC3)c12 (racemic) [compound 593, (E)-N-Cyclopropyl-3-(3-(2-cyclopropylpyrrolidin-1-yl)-3-oxoprop-1-en-1-yl)-7-hydroxy-4-isobutyl-5-oxo-4,5-dihydropyrazolo[1,5-a]pyrimidine-6-carboxamide (racemate)] | 1.48 | –
8 | CC(C)Cn1c(=O)c(C(=O)NC2CC2)c(O)n2ncc(/C=C/C(=O)N3CCC(C(F)(F)F)C3)c12 (racemic) [compound 595, (E)-N-Cyclopropyl-7-hydroxy-4-isobutyl-5-oxo-3-(3-oxo-3-(3-(trifluoromethyl)pyrrolidin-1-yl)prop-1-en-1-yl)-4,5-dihydropyrazolo[1,5-a]pyrimidine-6-carboxamide (racemate)] | 1.54 | –
9 | CC(C)Cn1c(=O)c(C(=O)NC2CC2)c(O)n2ncc(/C=C/C(=O)N3CCC(C(F)F)C3)c12 (racemic) [compound 596, (E)-N-Cyclopropyl-3-(3-(3-(difluoromethyl)pyrrolidin-1-yl)-3-oxoprop-1-en-1-yl)-7-hydroxy-4-isobutyl-5-oxo-4,5-dihydropyrazolo[1,5-a]pyrimidine-6-carboxamide (racemate)] | 0.96 | –
10 | Cc1nn2c(O)c(C(=O)NC3CC3)c(=O)n(CC(C)C)c2c1/C=C/C(=O)N1CCC2CC21 (racemic) [compound 609, (E)-3-(3-(2-Azabicyclo[3.1.0]hexan-2-yl)-3-oxoprop-1-en-1-yl)-N-cyclopropyl-7-hydroxy-4-isobutyl-2-methyl-5-oxo-4,5-dihydropyrazolo[1,5-a]pyrimidine-6-carboxamide (racemate)] | 1.23 | –
11 | COC(C)Cn1c(=O)c(C(=O)NC2CC2)c(O)n2ncc(/C=C/C(=O)N3CCOCC3)c12 (single isomer, unassigned) [Synthesis Example 384, (E)-N-Cyclopropyl-7-hydroxy-4-(2-methoxypropyl)-3-(3-morpholino-3-oxoprop-1-en-1-yl)-5-oxo-4,5-dihydropyrazolo[1,5-a]pyrimidine-6-carboxamide] | 0.82 | –
12 | COC(C)Cn1c(=O)c(C(=O)NC2CC2)c(O)n2ncc(/C=C/C(=O)N3CCOCC3)c12 (single isomer, unassigned) [Synthesis Example 385, (E)-N-Cyclopropyl-7-hydroxy-4-(2-methoxypropyl)-3-(3-morpholino-3-oxoprop-1-en-1-yl)-5-oxo-4,5-dihydropyrazolo[1,5-a]pyrimidine-6-carboxamide] | 0.83 | –
13 | CC(Cn1c(=O)c(C(=O)NC2CC2)c(O)n2ncc(/C=C/C(=O)N3CCOCC3)c12)C(F)(F)F (single isomer, unassigned) [Synthesis Example 388, (E)-N-Cyclopropyl-7-hydroxy-3-(3-morpholino-3-oxoprop-1-en-1-yl)-5-oxo-4-(3,3,3-trifluoro-2-methylpropyl)-4,5-dihydropyrazolo[1,5-a]pyrimidine-6-carboxamide] | 1.53 | –
14 | CC(Cn1c(=O)c(C(=O)NC2CC2)c(O)n2ncc(/C=C/C(=O)N3CCOCC3)c12)C(F)(F)F (single isomer, unassigned) [Synthesis Example 389, (E)-N-Cyclopropyl-7-hydroxy-3-(3-morpholino-3-oxoprop-1-en-1-yl)-5-oxo-4-(3,3,3-trifluoro-2-methylpropyl)-4,5-dihydropyrazolo[1,5-a]pyrimidine-6-carboxamide] | 0.95 | –
15 | CC(C)Cn1c(=O)c(C(=O)NC2CC2)c(O)n2ncc(/C=C/C(=O)N3CCOCC3CC(F)(F)F)c12 (single isomer, unassigned) [compound 550, (E)-N-Cyclopropyl-7-hydroxy-4-isobutyl-5-oxo-3-(3-oxo-3-(3-(2,2,2-trifluoroethyl)morpholino)prop-1-en-1-yl)-4,5-dihydropyrazolo[1,5-a]pyrimidine-6-carboxamide (Isomer] | 0.79 | –
16 | Cc1nn2c(O)c(C(=O)NC3CC3)c(=O)n(CC(C)C)c2c1/C=C/C(=O)N1C[C@@H](F)[C@H](F)C1 (single isomer, unassigned; isomer a) [Synthesis Example 755, N-Cyclopropyl-3-((E)-3-(trans-3,4-difluoropyrrolidin-1-yl)-3-oxoprop-1-en-1-yl)-7-hydroxy-4-isobutyl-2-methyl-5-oxo-4,5-dihydropyrazolo[1,5-a]pyrimidine-6-carboxamide (Isomer A)] | – | 0.61
17 | Cc1nn2c(O)c(C(=O)NC3CC3)c(=O)n(CC(C)C)c2c1/C=C/C(=O)N1C[C@@H](F)[C@H](F)C1 (single isomer, unassigned; isomer b) [Synthesis Example 756, N-Cyclopropyl-3-((E)-3-(trans-3,4-difluoropyrrolidin-1-yl)-3-oxoprop-1-en-1-yl)-7-hydroxy-4-isobutyl-2-methyl-5-oxo-4,5-dihydropyrazolo[1,5-a]pyrimidine-6-carboxamide (Isomer B)] | – | 0.71
